Biological target: T1, Human BACE (Homo sapiens, UniProt P56817)
T1 construct: Recombinant BACE (extracellular domain, expressed in baculovirus and purified using standard methods); made in house; host or cells: baculovirus expression system (insect cells)
Test: Test 1: Inhibition of Human BACE
Format: biochemical
Conditions: recombinant BACE extracellular domain, fluorescence-quenched APP-derived peptide substrate, pH 4.5
Method: Test 1: Inhibition of Human BACE
Recombinant BACE (extracellular domain, expressed in baculovirus and purified using standard methods) at 0.1 to 10 nM concentrations is incubated with the test compound at various concentrations for 1 hour at room temperature in 10 to 100 mM acetate buffer, pH 4.5, containing 0.1% CHAPS. Synthetic fluorescence-quenched peptide substrate, derived from the sequence of APP and containing a suitable fluorophore-quencher pair, is added to a final concentration of 1 to 5 μM, and the increase in fluorescence is recorded at a suitable excitation/emission wavelength in a microplate spectro-fluorimeter for 5 to 30 minutes in 1-minute intervals. IC50 values are calculated from percentage of inhibition of BACE-activity as a function of the test compound concentration.

T1 sequence (P56817 46-457 limits assumed): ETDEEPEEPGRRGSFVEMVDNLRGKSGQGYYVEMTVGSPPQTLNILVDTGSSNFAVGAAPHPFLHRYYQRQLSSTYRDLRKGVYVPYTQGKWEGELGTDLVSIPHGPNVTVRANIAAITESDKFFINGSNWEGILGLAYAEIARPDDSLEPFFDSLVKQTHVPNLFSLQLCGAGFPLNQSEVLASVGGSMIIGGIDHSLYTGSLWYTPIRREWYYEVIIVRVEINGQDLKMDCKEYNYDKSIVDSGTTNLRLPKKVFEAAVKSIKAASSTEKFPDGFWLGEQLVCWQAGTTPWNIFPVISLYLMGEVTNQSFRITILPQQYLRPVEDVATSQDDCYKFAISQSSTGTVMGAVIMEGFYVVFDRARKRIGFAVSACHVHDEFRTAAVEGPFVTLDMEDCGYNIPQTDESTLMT

CC(C)c1cccc(C2(NC[C@@H](O)[C@@H]3C[C@H](C)CCCCCCCCC(=O)N(C)[C@@H](C)C(=O)N3)CC2)c1 [Example 1, (3S,14R,16S)-16-{(R)-1-Hydroxy-2-[1-(3-isopropyl-phenyl)-cyclopropylamino]-ethyl}-3,4,14-trimethyl-1,4-diaza-cyclohexadecane-2,5-dione]
IC50: 30 nM

Source: patent publication US20090170878A1, “MACROCYCLIC COMPOUNDS USEFUL AS BACE INHIBITORS” (priority 2006, published 2009)
